Laboratory results from patent US20110002953A1, “USE OF IMMIDAZOQUINOLINAMINES AS ADJUVANTS IN DNA VACCINATION” (priority 2000, published 2011).

What was measured:
[1] = tested on: IL-4-producing (Th2) cells; test: IL-4 ELISPOT on lymph node cells after pVAC1.OVA vaccination, adoptive transfer model; assay type: in vivo, Balb/c mice; conditions: for IL-4 producing cells, in words: pVAC1.OVA + adjuvant versus plasmid without adjuvant
Procedure: (§1) Splenocytes were prepared as in example 1 above.
(§2) Th CD4+ subsets were assessed using the adoptive transfer model (example 2, above). IFN-γ-producing (Th1) and IL-4-producing (Th2) cells were assayed by ELISPOT (example 1, above). […] No cytokine producing cells were detected in empty vector immunised controls.
(§3) Cartridges were prepared using the pVAC1.OVA plasmid, immunisations and T cell responses were as described in example 2.

[2] = tested on: IFN-γ-producing (Th1) cells; test: IFN-γ ELISPOT on lymph node cells after pVAC1.OVA vaccination, adoptive transfer model; assay type: in vivo, Balb/c mice; conditions: for IFN-γ producing cells, in words: pVAC1.OVA + adjuvant versus plasmid without adjuvant
Procedure: as §1, §2, §3

[3] = tested on: cytotoxic T cells (HIV antigens Gag and Nef); test: IFN-γ ELISPOT of splenocytes with CD8-restricted Gag and Nef peptides after prime/boost vaccination with WRG7077.Gag/Nef; assay type: in vivo, Balb/c mice
Procedure: Here mice received a primary immunisation followed by a boost immunisation 42 days later.
IFN-γ ELISPOT assays were performed as described (example 1), using CD8-restricted cognate peptides for the Gag and Nef antigens to stimulate splenocytes collected 5 days after the boost immunisation.
Cartridges were prepared using the WRG7077Gag/Nef plasmid, PMID immunisations and T cell responses were as described in example 5. […] Spleens were collected for analysis 6 and 11 days after the boost immunisation.

[4] = tested on: EG7-OVA cells; test: Tumour challenge with EG7-OVA cells after immunisation with pVAC1.OVA; assay type: in vivo, mice
[5] = tested on: cytotoxic T cell response; test: CD8+ T cell-restricted IFN-γ ELISPOT of splenocytes after particle mediated vaccination with pVAC1.PR (influenza nucleoprotein plasmid); assay type: in vivo, C57B1/6 mice
Procedure: The cytotoxic T cell response was assessed by CD8+ T cell-restricted IFN-γ ELISPOT assay of splenocytes collected one week later. Mice were killed by cervical dislocation and spleens were collected into ice-cold PBS. Splenocytes were teased out into phosphate buffered saline (PBS) followed by lysis of red blood cells (1 minute in buffer consisting of 155 mM NH4Cl, 10 mM KHCO3, 0.1 mM EDTA). After two washes in PBS to remove particulate matter the single cell suspension was aliquoted into ELISPOT plates previously coated with capture IFN-γ antibody and stimulated with CD8-restricted cognate peptide. After overnight culture, IFN-γ producing cells were visualised by application of anti-murine IFN-γ-biotin labelled antibody (Pharmingen) followed by streptavidin—conjugated alkaline phosphatase and quantitated using image analysis.

[6] = imiquimod 100 mg/kg s.c. at boost only, splenocytes 5 days after boost, versus plasmid with vehicle

CC(C)(O)Cn1cnc2c(N)nc3ccccc3c21 [1-(2-hydroxy-2-methylpropyl)-1H-imidazo[4,5-c]quinolin-4-amine]
IL-4 producing cells, in words [1]: increased
IFN-γ producing cells, in words [2]: increased

Cc1nc2c(N)nc3ccccc3c2n1CC(C)(C)O [1-(2-hydroxy-2-methylpropyl)-2-methyl-1H-imidazo[4,5-c]quinolin-4-amine]
IL-4 producing cells, in words [1]: increased
increase in IL-4 producing CD4 T cells ([1]; single dose 30 mg/kg, 5 days after immunisation): Two
IFN-γ producing cells, in words [2]: increased

CCOCc1nc2c(N)nc3ccccc3c2n1CC(C)(C)O [Resiquimod, 1-(2-hydroxy-2-methylpropyl)-2-ethoxymethyl-1-H-imidazo[4,5-c]quinolin-4-amine]
effect on IL-4 producing CD4 T cells ([1]; 1 mg/kg, lymph node cells 5 days after immunisation): only a modest effect
IL-4 producing cells, in words [1]: increased
increase of IFN-γ producing CD4 T cells ([2]; 1 mg/kg (apparently optimal dose), lymph node cells 5 days after immunisation): six
IFN-γ producing cells, in words [2]: increased

CC(C)Cn1cnc2c(N)nc3ccccc3c21 [imiquimod, 1-(2-methylpropyl)-1H-imidazo[4,5-c]quinolin-4-amine]
increase in cytotoxic T cells, imiquimod s.c. injection ([3]; 30 mg/kg s.c., 11 days after boost, versus plasmid with s.c. vehicle): approximately 2 fold
increase in cytotoxic T cells, imiquimod topically ([3]; 20 μl of 5% (w/v) cream (Aldara) at PMID site, 11 days after boost, versus plasmid with s.c. vehicle): approximately 2 fold
increase in cytotoxic T cells, Gag [3, 6]: 10 fold
increase in cytotoxic T cells, Nef [3, 6]: 100 fold
cytotoxic T-cell response following vaccination with WRG7077.Gag/Nef (FIG. 5) ([3]; in words): increases
cytotoxic T-cell response, topical application (FIG. 8) ([3]; in words): increases
IL-4 producing cells, in words [1]: increased
IFN-γ producing cells, in words [2]: increased
Th1/Th2 bias: increase of IFN-γ versus IL-4 producing cells ([2]; pVAC1.OVA + imiquimod, ELISPOT): more substantial for IFN-γ compared with IL-4
growth of tumours (FIG. 9) ([4]; in words): delays
tumourigenicity of EG7.OVA tumour cells (FIG. 10) ([4]; in words): reduces
tumourigenicity ([4]; mice immunised with pVAC1.OVA + imiquimod 30 mg/kg s.c., 100,000 cells/mouse two weeks after boost): 25%
appearance of palpable tumours ([4]; pVAC1.OVA + imiquimod 30 mg/kg s.c. compared with pVAC1.OVA alone): most delayed
cytotoxic T cells, control plasmid (pVAC1) + imiquimod versus vehicle ([5]; empty vector pVAC1, imiquimod 30 mg/kg s.c.): No difference
number of cytotoxic T cells in the spleens, pVAC1.PR + imiquimod versus pVAC1.PR + vehicle ([5]; imiquimod 30 mg/kg single s.c. injection at immunisation site, splenocytes one week later): 3 times
cytotoxic T-cell response following vaccination with pVAC1.PR (FIG. 1) ([5]; in words): increases
